14 compounds from ChEMBL document CHEMBL1152363 (Bioorg Med Chem Lett, 2009) can be followed below.

One data set addresses Dipeptidyl peptidase 4 (Homo sapiens, UniProt P27487). Description: Inhibition of DPP4 by continuous fluorimetric assay.
A short description of data set [1]: Metabolic stability in rat liver microsomes assessed as turnover after 60 mins. Particulars: read-out: Stability. The format is ADME, Microsome.

As usually defined, the IC50 is the concentration at which inhibition is half-maximal. Low values mean inhibition by little substance, high ones a need for much substance.

Chain of Dipeptidyl peptidase 4 (P27487 whole entry): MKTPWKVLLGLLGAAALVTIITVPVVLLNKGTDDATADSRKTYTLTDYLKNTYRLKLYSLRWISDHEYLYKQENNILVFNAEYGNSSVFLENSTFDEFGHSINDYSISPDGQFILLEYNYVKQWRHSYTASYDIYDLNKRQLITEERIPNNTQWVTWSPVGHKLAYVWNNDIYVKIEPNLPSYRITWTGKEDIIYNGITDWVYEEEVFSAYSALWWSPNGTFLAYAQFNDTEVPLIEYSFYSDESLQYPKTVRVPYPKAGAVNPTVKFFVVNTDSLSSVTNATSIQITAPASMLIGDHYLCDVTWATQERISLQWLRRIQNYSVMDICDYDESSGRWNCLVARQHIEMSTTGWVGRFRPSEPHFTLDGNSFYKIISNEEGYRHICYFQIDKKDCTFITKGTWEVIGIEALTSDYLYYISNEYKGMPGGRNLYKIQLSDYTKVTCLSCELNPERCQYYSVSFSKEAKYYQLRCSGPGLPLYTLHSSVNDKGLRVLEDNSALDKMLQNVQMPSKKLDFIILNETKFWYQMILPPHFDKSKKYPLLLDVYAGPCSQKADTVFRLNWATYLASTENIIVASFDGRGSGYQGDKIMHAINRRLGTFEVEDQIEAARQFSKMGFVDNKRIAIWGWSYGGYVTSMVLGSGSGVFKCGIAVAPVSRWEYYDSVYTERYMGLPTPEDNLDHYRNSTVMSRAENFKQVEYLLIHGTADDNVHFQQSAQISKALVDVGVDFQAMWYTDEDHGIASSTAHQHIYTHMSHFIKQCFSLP

On to `N[C@@H](CC(=O)N1CCC[C@H]1CNC(=O)c1ccncc1)Cc1ccccc1F`, for which the half-maximal inhibitory concentration (IC50) at Dipeptidyl peptidase 4 worked out at 66 nM. Same read-out and setting: to `N[C@@H](CC(=O)N1CCC[C@H]1CNC(=O)c1ccccc1)Cc1cccc(Cl)c1` belongs 27 nM; to `N[C@@H](CC(=O)N1CCC[C@H]1CNS(=O)(=O)c1cccc(F)c1)Cc1ccccc1F`, 94 nM; to `N[C@@H](CC(=O)N1CCC[C@H]1CNC(=O)c1ccccc1F)Cc1ccccc1F`, 49 nM. Same read-out and setting: to `CS(=O)(=O)c1ccccc1C(=O)NC[C@@H]1CCCN1C(=O)C[C@H](N)Cc1ccccc1F` belongs 27 nM; to `N[C@@H](CC(=O)N1CCC[C@H]1CNS(=O)(=O)c1ccc(F)cc1)Cc1ccccc1F`, 27 nM.

At Dipeptidyl peptidase 4, `N[C@@H](CC(=O)N1CCC[C@H]1CNC(=O)c1cccnc1)Cc1ccccc1F` came in with an IC50 of 87 nM. On the same count and under the same terms, the figure for `N[C@@H](CC(=O)N1CCC[C@H]1CNS(=O)(=O)c1cc(Cl)ccc1Cl)Cc1ccccc1F` is 24 nM; for `N[C@@H](CC(=O)N1CCC[C@H]1CNC(=O)c1cccc(F)c1)Cc1ccccc1F` it is 92 nM. The same measure, in the same setting: the figure for `CS(=O)(=O)c1ccc(C(=O)NC[C@@H]2CCCN2C(=O)C[C@H](N)Cc2ccccc2F)cc1` is 77 nM. Consider `N[C@@H](CC(=O)N1CCC[C@H]1CNC(=O)c1ccccc1)Cc1ccccc1F`, for which, in data set [1], the metabolised at 1 h worked out at 76%. The compound `N[C@@H](CC(=O)N1CCC[C@H]1CNS(=O)(=O)c1ccc(Cl)cc1)Cc1ccccc1F` yielded a half-inhibitory concentration (IC50) against Dipeptidyl peptidase 4 of 20 nM. On the same count and under the same terms, the figure for `N[C@@H](CC(=O)N1CCC[C@H]1CNC(=O)c1ccccn1)Cc1ccccc1F` is 47 nM; for `N[C@@H](CC(=O)N1CCC[C@H]1CNC(=O)c1ccc(F)cc1)Cc1ccccc1F` it is 92 nM.
